Counter-ions that a name gives are not always drawn.
Key:
[1] = Inhibition of recombinant alpha-glucosidase (unknown origin) using PNP-G as substrate preincubated for 5 mins followed by substrate addition measured after 30 mins by spectrophotometric analysis; parameters: species or system Homo sapiens
[2] = biological target: T1, Epidermal growth factor receptor (Homo sapiens, UniProt P00533); conditions: at 50 nM
Description: Inhibition of wild type recombinant EGFR (unknown origin) at 50 nM by ELISA relative to control

[3] = biological target: T1, Epidermal growth factor receptor; assay: Inhibition of wild type recombinant EGFR (unknown origin) by ELISA

T1 sequence (P00533 whole entry): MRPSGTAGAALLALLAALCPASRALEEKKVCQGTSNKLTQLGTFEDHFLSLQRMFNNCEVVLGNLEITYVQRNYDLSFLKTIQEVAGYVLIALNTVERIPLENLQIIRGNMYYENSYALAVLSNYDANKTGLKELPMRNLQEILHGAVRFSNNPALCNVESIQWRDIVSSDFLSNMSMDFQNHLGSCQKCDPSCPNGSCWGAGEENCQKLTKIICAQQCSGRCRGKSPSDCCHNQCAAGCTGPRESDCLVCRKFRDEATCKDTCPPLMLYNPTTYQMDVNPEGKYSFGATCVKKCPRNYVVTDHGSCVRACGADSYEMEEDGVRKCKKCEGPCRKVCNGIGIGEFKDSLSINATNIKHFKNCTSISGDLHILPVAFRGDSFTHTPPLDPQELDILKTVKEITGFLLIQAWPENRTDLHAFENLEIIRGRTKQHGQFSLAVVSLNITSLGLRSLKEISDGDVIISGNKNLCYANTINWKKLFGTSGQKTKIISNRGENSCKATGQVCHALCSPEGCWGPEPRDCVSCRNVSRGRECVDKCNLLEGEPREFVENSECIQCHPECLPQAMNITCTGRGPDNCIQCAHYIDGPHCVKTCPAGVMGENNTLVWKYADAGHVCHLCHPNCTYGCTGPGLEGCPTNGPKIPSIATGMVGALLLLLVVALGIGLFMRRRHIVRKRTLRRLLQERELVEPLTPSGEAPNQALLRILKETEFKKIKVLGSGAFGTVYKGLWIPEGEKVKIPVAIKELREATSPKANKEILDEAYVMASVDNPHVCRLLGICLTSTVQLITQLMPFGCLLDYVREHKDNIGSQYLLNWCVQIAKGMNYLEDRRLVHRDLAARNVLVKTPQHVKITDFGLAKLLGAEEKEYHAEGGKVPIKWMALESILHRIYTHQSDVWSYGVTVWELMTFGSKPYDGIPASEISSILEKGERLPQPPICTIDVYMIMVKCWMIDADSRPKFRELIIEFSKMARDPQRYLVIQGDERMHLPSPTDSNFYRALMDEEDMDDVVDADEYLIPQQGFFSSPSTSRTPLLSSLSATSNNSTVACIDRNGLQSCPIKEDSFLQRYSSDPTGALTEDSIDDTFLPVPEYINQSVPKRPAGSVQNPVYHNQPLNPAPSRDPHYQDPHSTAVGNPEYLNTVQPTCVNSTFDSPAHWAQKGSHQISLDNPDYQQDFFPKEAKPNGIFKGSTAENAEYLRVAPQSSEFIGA

| IC50 [1] [nM] | inhibition [2] [%] | IC50 [3] [nM] | Compound |
| --- | --- | --- | --- |
| 21200 | 74.9 | – | COc1cc2ncnc(Nc3ccc(OCc4cccc(F)c4)c(Cl)c3)c2cc1OCCCN1C[C@H](O)[C@@H](O)[C@H](O)[C@H]1CO |
| 7180 | 56.4 | – | C#Cc1cccc(Nc2ncnc3cc(OC)c(OCCN4C[C@H](O)[C@@H](O)[C@H](O)[C@H]4CO)cc23)c1 |
| 2430 | – | – | OCCN1C[C@H](O)[C@@H](O)[C@H](O)[C@H]1CO [MIGLITOL] |
| – | 27.1 | – | C#Cc1cccc(Nc2ncnc3ccc(-c4ccc(CN5C[C@H](O)[C@@H](O)[C@H](O)[C@H]5CO)o4)cc23)c1 |
| 8400 | 65.2 | – | COc1cc2ncnc(Nc3ccc(F)c(Cl)c3)c2cc1OCCN1C[C@H](O)[C@@H](O)[C@H](O)[C@H]1CO |
| 70 | – | – | OC[C@H]1NC[C@H](O)[C@@H](O)[C@@H]1O [DUVOGLUSTAT HYDROCHLORIDE] |
| 140 | 78.2 | 4.53 | COc1cc2c(Nc3ccc(OCc4cccc(F)c4)c(Cl)c3)ncnc2cc1OCCCN1C[C@H](O)[C@@H](O)[C@H](O)[C@H]1CO |
| 390 | 85.3 | 1.79 | COc1cc2c(Nc3ccc(F)c(Cl)c3)ncnc2cc1OCCCN1C[C@H](O)[C@@H](O)[C@H](O)[C@H]1CO |
| 90 | 83.2 | 4.87 | C#Cc1cccc(Nc2ncnc3cc(OCCCN4C[C@H](O)[C@@H](O)[C@H](O)[C@H]4CO)c(OC)cc23)c1 |
| 4340 | 83.5 | 10.7 | COc1cc2ncnc(Nc3ccc(F)c(Cl)c3)c2cc1OCCCN1C[C@H](O)[C@@H](O)[C@H](O)[C@H]1CO |
| 64100 | 66.5 | – | COc1cc2ncnc(Nc3ccc(OCc4cccc(F)c4)c(Cl)c3)c2cc1OCCN1C[C@H](O)[C@@H](O)[C@H](O)[C@H]1CO |
| 6250 | 53.5 | – | C#Cc1cccc(Nc2ncnc3cc(OCCN4C[C@H](O)[C@@H](O)[C@H](O)[C@H]4CO)c(OC)cc23)c1 |
| 250 | 53.7 | – | COc1cc2c(Nc3ccc(F)c(Cl)c3)ncnc2cc1OCCN1C[C@H](O)[C@@H](O)[C@H](O)[C@H]1CO |
| 6190 | 79.6 | – | C#Cc1cccc(Nc2ncnc3cc(OC)c(OCCCN4C[C@H](O)[C@@H](O)[C@H](O)[C@H]4CO)cc23)c1 |
| – | 50.6 | – | OC[C@@H]1[C@@H](O)[C@H](O)[C@@H](O)CN1Cc1ccc(-c2ccc3ncnc(Nc4ccc(OCc5cccc(F)c5)c(Cl)c4)c3c2)o1 |
| – | 78 | – | OC[C@@H]1[C@@H](O)[C@H](O)[C@@H](O)CN1Cc1ccc(-c2ccc3ncnc(Nc4ccc(F)c(Cl)c4)c3c2)o1 |

— ChEMBL document CHEMBL4043197, “Quinazoline-1-deoxynojirimycin hybrids as high active dual inhibitors of EGFR and α-glucosidase” (Bioorg Med Chem Lett, 2017)
